According to article PMC10689823, “Discovery of a Drug-like, Natural Product-Inspired DCAF11 Ligand Chemotype” (Nature Communications, 2023):

Target: BRD4S-TagBFP reporter (Homo sapiens, UniProt O60885)
Assay: FACS-based CRISPR/Cas9 BRD4 protein stability screen
Details: Mageck_Gene level

## Cc1sc2c(c1C)C(c1ccc(Cl)cc1)=NC(CC(=O)NCCOCCOCCOCCOc1c(Br)cc(C=C3C(=O)Nc4ccc(Br)cc43)cc1Br)c1nnc(C)n1-2 (stereo not shown) [Compound 10]
Gene FBXL18
  Low_lfc: 0.15
  Low_logP: 0.58
Gene FBXL19
  High_lfc: -0.07
  High_logP: 0.17
  Low_lfc: 0.26
  Low_logP: 0.97
Gene FBXL20
  High_lfc: 0.09
  High_logP: 0.36
  Low_lfc: -0.03
  Low_logP: 0.19
Gene FBXL21
  High_lfc: 0.06
  High_logP: 0.36
  Low_lfc: -0.13
  Low_logP: 0.07
Gene FBXL22
  High_lfc: 0.4
  Low_lfc: 0.39
  Low_logP: 1.13
Gene FBXO2
  High_lfc: 0.07
  High_logP: 0.12
  Low_lfc: -0.12
  Low_logP: 0.08
Gene FBXO10
  High_lfc: 0.07
  High_logP: 0.21
  Low_lfc: -0.41
  Low_logP: 0.06
Gene FBXO11
  High_lfc: -0.62
  High_logP: 0
  Low_lfc: 0.03
  Low_logP: 0.18
Gene FBXO15
  High_lfc: -0.25
  High_logP: 0.04
  Low_lfc: -0.28
  Low_logP: 0.22
Gene FBXO16
  High_lfc: -0.06
  High_logP: 0.3
  Low_lfc: -0.09
  Low_logP: 0.14
Gene FBXO17
  High_lfc: -0.2
  High_logP: 0.06
  Low_lfc: 0.03
  Low_logP: 0.49
Gene FBXO18
  High_lfc: -0.14
  High_logP: 0.12
  Low_lfc: 0.16
  Low_logP: 0.25
Gene FBXO21
  High_lfc: 0.22
  High_logP: 0.42
  Low_lfc: 0
  Low_logP: 0.2
Gene FBXO22
  High_lfc: -0.12
  High_logP: 0.02
  Low_lfc: 0.34
  Low_logP: 0.76
Gene FBXO24
  High_lfc: -0.07
  High_logP: 0.15
  Low_lfc: 0.03
  Low_logP: 0.43
Gene FBXO25
  High_lfc: -0.22
  High_logP: 0.18
  Low_lfc: -0.04
  Low_logP: 0.27
Gene FBXO27
  High_lfc: -0.12
  High_logP: 0.16
  Low_lfc: 0.09
  Low_logP: 0.72
Gene FBXO28
  High_lfc: 0.16
  High_logP: 0.49
  Low_lfc: -0.29
  Low_logP: 0.02
Gene FBXO30
  High_lfc: -0.1
  High_logP: 0.16
  Low_lfc: 0.12
  Low_logP: 0.1
Gene FBXO31
  High_lfc: 0.04
  High_logP: 0.36
  Low_lfc: -0.01
  Low_logP: 0.26
Gene FBXO32
  High_lfc: 0.06
  High_logP: 0.08
  Low_lfc: 0.38
  Low_logP: 0.68
Gene FBXO33
  High_lfc: -0.54
  High_logP: 0
  Low_lfc: -0.07
  Low_logP: 0.18
Gene FBXO34
  High_lfc: 0.15
  High_logP: 0.29
  Low_lfc: -0.13
  Low_logP: 0.33
Gene FBXO36
  High_lfc: -0.26
  High_logP: 0.21
  Low_lfc: 0.2
  Low_logP: 0.47
Gene FBXO38
  High_lfc: -0.33
  High_logP: 0.02
  Low_lfc: 0.01
  Low_logP: 0.38
Gene FBXO39
  High_lfc: 0.06
  High_logP: 0.22
  Low_lfc: 0.01
